Source: patent US20040029965A1, “Formulations for reducing or eliminating toxicity of enviromental hormones containing ursodeoxycholic acid” (priority 2000, published 2004)

What was measured:
[1] = test system: C57B1/6J mice; assay: Blood (serum) biochemical changes in mice by a single subcutaneous injection of TCDD; format: in vivo
Procedure: Male C57B1/6J mice of 5 weeks old having the average weight of 18-22 g which had been bred in CRJ (Charles River in Japan) were purchased and used in this example as experimental animals. Those mice were acclimated under the constant breeding condition, i.e. the temperature of 24±1° C., the humidity of 60±10% and the light and darkness cycle of 12 hours, for one week and thereafter, utilized in the experiment.
(§1) 2,3,7,8-tetrachlorodibenzo-p-dioxin (TCDD) dissolved in toluene (purity of 95% or more as a result of gas chromatography analysis), manufactured by Chem. Services Inc. in USA, was volatilized with nitrogen to obtain powder. The obtained powder was dissolved in a mixed solvent containing acetone and corn oil with a volume ratio of 1:6. The resulting solution each containing 110, 27.5 and 6.9 μg/kg of TCDD was subcutaneously injected to mice at a volume of 5 ml per body weight. […] The mice were supplied with the feed from 10 days before (pre-administration) to 60 days after administration of TCDD (post-administration).
(§2) Upon completion of the experiment for 60 days, the experimental animals were fasted for 24 hours and anesthetized with ether. Then, they were abdominally incised and blood was gathered from abdominal vena cava. They were sacrificed by the release of blood. Liver, kidneys, testes and epididymides were extracted and all the extracted organs were weighed. Only the testes were separately kept and observed under optical and electron microscopes. For biochemical finding test, serum was separated from blood with a centrifuge and the separated serum was analyzed with an automated blood biochemical analyzer, Dimension (Dupont, USA). Blood was put to another blood gathering bottle and then, analyzed with an automated blood cell analyzer, Celldyn (Abbott, USA).
The results are expressed as Mean±Standard Deviation values. For statistical analysis of the body weight, feed and water uptake, biochemical findings, hematological findings and the weight of organ in an acute toxicity test, verification was performed by one way analysis of variance (ANOVA) in case of equal distribution. In case significance was recognized in ANOVA, the Student's t-test was performed in the levels of p<0.05 and p<0.01.
For biochemical findings in the serum, the levels of glucose (GLU), GOT, GPT, Triglyceride (TG), high density lipoprotein (HDL-C), low density lipoprotein (LDL-C) and alkaline phosphatase (ALP) in serum were measured and the results are shown in the following.

[2] = test system: C57B1/6J mice; assay: Johnsen's score of the testis tissue (level of spermatogenesis); format: in vivo
Procedure: as §1, §2
The extracted testes were fixed in 10% neutralized formalin buffer for 24 hours and washed with the flowing water. It was subsequently dehydrated with ethanol and cleared with xylene and then, embedded with paraffin. It was sectioned with microtome (microm is HM 440E) to a thickness of 2-3 μm and then, double stained with hematoxylin and eosin to observe under an optical microscope.
For evaluation of the level of spermatogenesis, Johnsen's score was determined from 10 to 1 based on the presence or absence of principal cells arranged according to maturation of spermatogenesis. The basis of Johnsen's score in testes was the following:
10: Perfect spermatogenesis having many sperms, organization of embryonic epithelial cells with a constant thickness, and opened lumen
9: Despite many sperms, significant separation of embryonic epithelial cells from the basement membrane and disruption thereof, or loss of lumen
8: Presence of 5 to less than 10 sperms in the section
7: Many sperm cells without sperms
6: 5 to less than 10 sperm cells without sperms
5: Several or many spermatocytes without sperms and sperm cells
4: Less than 5 spermatocytes without sperms and sperm cells
3: Presence of only spermatogonia as reproductive cells
2: Presence of only Sertoli cells without any reproductive cells
1: No cells in the section of seminiferous tubules

[3] = TCDD 6.9 μg/kg + UDCA 0.125 wt %
[4] = TCDD 6.9 μg/kg + UDCA 0.25 wt %
[5] = TCDD 27.5 μg/kg + UDCA 0.125 wt %
[6] = TCDD 27.5 μg/kg + UDCA 0.25 wt %
[7] = TCDD 27.5 μg/kg + UDCA 0.5 wt %

Clc1cc2c(cc1Cl)Oc1cc(Cl)c(Cl)cc1O2 [TCDD, 2,3,7,8-tetrachlorodibenzo-p-dioxin]
ALP ([1]; TCDD 6.9 μg/kg alone): 69.67 ± 8.80 IU/l | GLU ([1]; TCDD 6.9 μg/kg alone): 96.00 ± 15.15 mg/dL | GOT ([1]; TCDD 6.9 μg/kg alone): 55.16 ± 6.65 IU/l | GPT ([1]; TCDD 6.9 μg/kg alone): 21.66 ± 5.39 IU/l | HDL-C ([1]; TCDD 6.9 μg/kg alone): 39.29 ± 9.38 mg/dL | LDL-C ([1]; TCDD 6.9 μg/kg alone): 24.43 ± 11.81 mg/dL | TG ([1]; TCDD 6.9 μg/kg alone): 76.14 ± 14.03 mg/dL | ALP ([1]; TCDD 27.5 μg/kg alone): 65.4 ± 19.05 IU/l | GLU ([1]; TCDD 27.5 μg/kg alone): 28.20 ± 8.23 mg/dL | GOT ([1]; TCDD 27.5 μg/kg alone): 230.40 ± 72.90 IU/l | GPT ([1]; TCDD 27.5 μg/kg alone): 70.4 ± 23.46 IU/l | HDL-C ([1]; TCDD 27.5 μg/kg alone): 21.80 ± 6.76 mg/dL | LDL-C ([1]; TCDD 27.5 μg/kg alone): 43.80 ± 14.99 mg/dL | TG ([1]; TCDD 27.5 μg/kg alone): 92.67 ± 16.79 mg/dL | Johnsen's score of the testis tissue ([2]; TCDD 6.9 μg/kg alone, score 10 to 1): 8.06 ± 0.09 | Johnsen's score of the testis tissue ([2]; TCDD 27.5 μg/kg alone, score 10 to 1): 7.42 ± 0.11

C[C@H](CCC(=O)O)[C@H]1CC[C@H]2[C@@H]3[C@@H](O)C[C@@H]4C[C@H](O)CC[C@]4(C)[C@H]3CC[C@]12C [UDCA, 3α, 7β-dihydroxy-5β-cholanoic acid]
ALP [1, 3]: 66.78 ± 7.21 IU/l | GLU [1, 3]: 128.00 ± 27.26 mg/dL | GOT [1, 3]: 49.80 ± 2.74 IU/l | GPT [1, 3]: 23.50 ± 8.32 IU/l | HDL-C [1, 3]: 45.67 ± 2.74 mg/dL | LDL-C [1, 3]: 14.56 ± 6.28 mg/dL | TG [1, 3]: 79.56 ± 1129 mg/dL | ALP [1, 4]: 72.05 ± 6.63 IU/l | GLU [1, 4]: 104.60 ± 24.87 mg/dL | GOT [1, 4]: 57.30 ± 4.83 IU/l | GPT [1, 4]: 24.00 ± 6.39 IU/l | HDL-C [1, 4]: 46.30 ± 5.08 mg/dL | LDL-C [1, 4]: 21.20 ± 5.25 mg/dL | TG [1, 4]: 75.90 ± 11.55 mg/dL | ALP ([1]; TCDD 6.9 μg/kg + UDCA 0.5 wt %): 85.24 ± 10.28 IU/l | GLU ([1]; TCDD 6.9 μg/kg + UDCA 0.5 wt %): 125.50 ± 14.98 mg/dL | GOT ([1]; TCDD 6.9 μg/kg + UDCA 0.5 wt %): 47.11 ± 1.9 IU/l | GPT ([1]; TCDD 6.9 μg/kg + UDCA 0.5 wt %): 18.78 ± 5.07 IU/l | HDL-C ([1]; TCDD 6.9 μg/kg + UDCA 0.5 wt %): 44.83 ± 2.04 mg/dL | LDL-C ([1]; TCDD 6.9 μg/kg + UDCA 0.5 wt %): 28.33 ± 4.63 mg/dL | TG ([1]; TCDD 6.9 μg/kg + UDCA 0.5 wt %): 84.20 ± 7.66 mg/dL | ALP [1, 5]: 75.14 ± 18.33 IU/l | GLU [1, 5]: 55.22 ± 9.34 mg/dL | GOT [1, 5]: 75.22 ± 6.38 IU/l | GPT [1, 5]: 54.67 ± 23.28 IU/l | HDL-C [1, 5]: 34.78 ± 4.35 mg/dL | LDL-C [1, 5]: 2.40 ± 1.14 mg/dL | TG [1, 5]: 98.78 ± 17.14 mg/dL | ALP [1, 6]: 79.63 ± 6.07 IU/l | GLU [1, 6]: 82.44 ± 13.04 mg/dL | GOT [1, 6]: 58.67 ± 5.54 IU/l | GPT [1, 6]: 42.11 ± 22.05 IU/l | HDL-C [1, 6]: 37.44 ± 3.64 mg/dL | LDL-C [1, 6]: 4.29 ± 4.03 mg/dL | TG [1, 6]: 97.00 ± 17.68 mg/dL | ALP [1, 7]: 80.57 ± 14.52 IU/l | GLU [1, 7]: 64.22 ± 9.35 mg/dL | GOT [1, 7]: 96.67 ± 31.63 IU/l | GPT [1, 7]: 45.38 ± 21.74 IU/l | HDL-C [1, 7]: 47.00 ± 7.66 mg/dL | LDL-C [1, 7]: 15.33 mg/dL | TG [1, 7]: 133.33 ± 13.17 mg/dL | Johnsen's score of the testis tissue ([2]; TCDD 6.9 μg/kg + UDCA 0.125 wt % in feed): 8.7 ± 0.09 | Johnsen's score of the testis tissue ([2]; TCDD 6.9 μg/kg + UDCA 0.250 wt % in feed): 8.84 ± 0.10 | Johnsen's score of the testis tissue ([2]; TCDD 6.9 μg/kg + UDCA 0.500 wt % in feed): 9.10 ± 0.08 | Johnsen's score of the testis tissue ([2]; TCDD 27.5 μg/kg + UDCA 0.125 wt % in feed): 8.40 ± 0.10 | Johnsen's score of the testis tissue ([2]; TCDD 27.5 μg/kg + UDCA 0.250 wt % in feed): 8.42 ± 0.08 | Johnsen's score of the testis tissue ([2]; TCDD 27.5 μg/kg + UDCA 0.500 wt % in feed): 8.81 ± 0.07
